Test system: Hep G2 hepatoma cells
Assay: Drymifolia leaf extract bioassay: cholesterol secretion by hepatoma cells (AMPLEX RED cholesterol kit)
Format: cell-based
Details: for activity at 25 µg/mL: HepG2, Conc. 25 μg/ml
Procedure: To measure cholesterol secretion by hepatoma cells following treatment by drymifolia leaf extract prepared in accordance with the present invention, a bioassay was performed. Samples for the bioassay were prepared by weighing out 100 mg of the spray dried powders of drymifolia leaf extracts. A 50 mg/ml total extract of the sample was then prepared by sequential addition of DMSO:ethanol:water in a ratio of 5:3:2. For example, for 100 mg of powder, 1 ml DMSO, 0.6 ml ethanol, and 0.4 ml water would be used. To prepare dilutions of sample for testing, the samples were diluted from the stock concentration of 50 mg/ml to test concentrations (i.e. 400, 200, 100 μg/ml) in tissue culture media. For the 400 μg/ml concentration, 8 μl of stock solution added to 992 μl tissue culture media would yield 400 μg/ml. From there, serial two fold dilutions would result in the remaining test concentration. Hep G2 hepatoma cells (ATCC, Manassas, Va.) were plated at 2×10^5/well in standard 24 well tissue culture plates. Following plating, the cells were incubated overnight. The next day, the media in the wells was aspirated and replaced with fresh media containing the diluted sample. Stock solutions of the samples were prepared as total extracts at 50 mg/ml. The samples were then diluted in tissue culture media just prior to adding to the cells. The cells were again incubated overnight with the samples. Then, the supernatant fluids were tested for the presence of cholesterol using the AMPLEX RED cholesterol kit (Molecular Probes, Eugene, Oreg.). The kit measures total cholesterol in the supernatants following enzymatic conversion of any cholesterol esters to free cholesterol using cholesterol esterase. The effect of the samples is calculated by dividing the mean relative fluorescence derived from the test samples by the mean relative fluorescence of untreated controls.
LIPITOR® and pure rutin samples were prepared in the same manner as the drymifolia leaf extract in the bioassay. The drymifolia leaf extract samples performed as well as or better than LIPITOR®. […] Pure rutin in the amount equivalent to the amount found in the lots 3193, 3194, 3811, and 3831 was tested. More specifically, the amount of rutin found in the lots was 3.44 mg/g, 4.36 mg/g, 4.42 mg/g and 4.13 mg/g, respectively. At the highest concentration of the drymifolia leaf extract samples tested (which was 400 ug/ml), there could be up to 25 ug/ml of rutin. Thus, the amount of pure rutin used in the bioassay was 3.125 to 25 ug/ml. […]

[1] = Homo sapiens, read-out: % ctrl (cholesterol release)

CC(C)c1c(C(=O)Nc2ccccc2)c(-c2ccccc2)c(-c2ccc(F)cc2)n1CC[C@@H](O)C[C@@H](O)CC(=O)O [LIPITOR ®, atorvastatin]
Mean (relative fluorescence, cholesterol release) (Conc. 25 μg/ml): 18308.5 | Mean (relative fluorescence, cholesterol release) (Conc. 50 μg/ml): 18591 | Mean (relative fluorescence, cholesterol release) (Conc. 100 μg/ml): 16871.5 | Mean (relative fluorescence, cholesterol release) (Conc. 200 μg/ml): 16378 | activity at 25 µg/mL [1]: 99.2% | activity at 50 µg/mL (Homo sapiens, HepG2, Conc. 50 μg/ml, read-out: % ctrl (cholesterol release)): 101% | activity at 100 µg/mL (Homo sapiens, HepG2, Conc. 100 μg/ml, read-out: % ctrl (cholesterol release)): 91.5% | activity at 200 µg/mL (Homo sapiens, HepG2, Conc. 200 μg/ml, read-out: % ctrl (cholesterol release)): 88.8%

C[C@@H]1O[C@@H](OC[C@H]2O[C@@H](Oc3c(-c4ccc(O)c(O)c4)oc4cc(O)cc(O)c4c3=O)[C@H](O)[C@@H](O)[C@@H]2O)[C@H](O)[C@H](O)[C@H]1O [Pure Rutin, rutin]
Mean (relative fluorescence, cholesterol release) (Conc. 3.125 μg/ml): 18609.5 | Mean (relative fluorescence, cholesterol release) (Conc. 6.25 μg/ml): 19069 | Mean (relative fluorescence, cholesterol release) (Conc. 12.5 μg/ml): 17835 | Mean (relative fluorescence, cholesterol release) (Conc. 25 μg/ml): 16817.5 | activity at 3.125 µg/mL (Homo sapiens, HepG2, Conc. 3.125 μg/ml, read-out: % ctrl (cholesterol release)): 101% | activity at 6.25 µg/mL (Homo sapiens, HepG2, Conc. 6.25 μg/ml, read-out: % ctrl (cholesterol release)): 103% | activity at 12.5 µg/mL (Homo sapiens, HepG2, Conc. 12.5 μg/ml, read-out: % ctrl (cholesterol release)): 96.7% | activity at 25 µg/mL [1]: 91.2%
